Results as given in article PMC5494507, “γ‐Secretase inhibitors in cancer clinical trials are pharmacologically and functionally distinct” (EMBO Molecular Medicine, 2017).

Experiments:
[1] = tested on: cNOTCH4sub; test: Cell-based γ-secretase cleavage assay, cNOTCH4sub in H4 cells (Aβ-like peptide ELISA); set-up: species or system human; conditions: Aβ-like peptide in media, GSI overnight
Procedure: (§1) Using these cell‐based γ‐secretase cleavage assays, we systematically investigated the substrate inhibition profile of BMS‐906024, MK‐0752, PF‐308414, RO4929097, Semagacestat, and DAPT. We treated H4 cells stably expressing cNOTCH1‐4sub with 4 pM to 10 μM of GSIs (Fig 5A and Table 2) and measured the Aβ‐like peptide secreted into the media.
(§2) For the cell‐based assay, all substrates contain a human NOTCH4 signal peptide sequence ([…]), amyloid β peptide (Aβ1–25/K16A) epitope tag followed by the juxtamembrane region (JMD) of the given substrate and a FLAG tag ([…]) at the COOH‐terminal. K16A mutant was created to decrease potential α‐secretase cleavage. The cDNAs were generated by gene synthesis conducted by Genscript. A schematic representation of the substrates is provided in Fig 4A, and sequences of the cDNAs and the proteins are provided in Appendix Fig S6. For clarity, these substrates are referred to as cell‐based assay substrates (e.g., NOTCH1 is cNOTCH1sub). Substrate cDNAs were cloned into pCDNA3.1 (Invitrogen, Carlsbad, CA, USA) for expression in H4 cells (ATCC, Manassas, VA).
(§3) H4 cells were cultured in Opti‐mem media (Thermo‐Fisher) supplemented with Hyclone 6% fetal bovine serum (GE, Logan, Utah, USA) and 1% penicillin/streptomycin (Life Technologies, Grand Island, NY, USA). pCDNA3.1 plasmids containing the substrate cDNAs were transfected into H4 cells using FuGENE HD reagent (Madison, WI, USA). Stable cell lines were established using G418 selection. […] Cells and conditioned media were used for WB, IP, and ELISA.
(§4) Sandwich ELISAs used for Aβ detection were performed as previously described (Murphy et al, 1999; Ran et al, 2014). Briefly, Aβ and Aβ‐like peptides in conditioned media were captured with Ab5 antibody and detected with horseradish peroxidase labeled mAb 4G8 (Biolegend). Synthetic Aβ1‐40 was used as standard. All ELISAs were developed with TMB substrate (KPL, Gaithersburg, Maryland, USA). Bis‐Tris precast gels (Biorad, Hercules, CA, USA) were used for all SDS–PAGE. Monoclonal anti‐FLAG M2 antibody (Sigma) and Aβ1‐16 antibody 6E10 (Covance) were used for Western blotting at 1:1,000 dilution. Anti‐CD74 In‐1 antibody (BD Bioscience, San Jose, CA, USA) was used for A20 cell lysate Western blotting at dilution of 1:1,000. MDA‐MB‐231 cell extracts were prepared by lysing cells in RIPA buffer containing protease and phosphatase inhibitors. The lysates were kept on ice for 30 min and vortexed every 10 min, and then centrifuged at 4°C for 10 min at 1,000 g. The supernatants were collected, and protein concentrations were determined by Bradford Assay. Pan‐NOTCH1 antibody (C‐20) (Santa Cruz Biotechnology) and cleaved NOTCH1 (Val1744) antibody ([…]) were used at 1:500 and 1:100 dilution in the test of endogenous NOTCH1 inhibition with β‐actin expression used as loading control. β‐actin antibody was used at 1:1,000 dilution (Sigma). Band intensities normalized for actin using densitometry analysis with ImageJ Software (NIH, USA).

[2] = tested on: SPPL2a, SPPL2b, and SPP; test: Cell-based SPPLs cleavage assay, HEK 293t cells co-transfected with FBA and SPPLs (ELISA); conditions: 1 μM, HEK 293t co-transfected with SPPLs and FBA
Procedure: It is known that SPP/SPPLs can be inhibited by select GSIs (Ran et al, 2015). Here, we tested the effect of various GSIs on the SPP/SPPL family members SPPL2a, SPPL2b, and SPP. We co‐transfected SPPLs with the BRI2 based chimeric SPP/SPPL substrate that we have referred to as FBA into HEK 293t cells. SPPL‐specific inhibitor (ZLL)2‐ketone was used as positive control. DAPT was not tested here as we and others have previously reported it had no effect on SPP activity at concentration up to 100 μM (Weihofen et al, 2003). […] Dose responses of BMS‐906024, RO4929097, and PF‐3084014 were performed with a similar strategy, but a stable SPPL2b/FBA overexpressing HEK 293 cell line was used instead of transient transfection (Fig 8B). […] Table 3 compares the GSIs’ potencies on γ‐secretase and SPPL2b. The average of IC50s on cNOTCH1sub, cNOTCH2sub, cNOTCH4sub, and APP was used as the GSI's potency on γ‐secretase.
SPPL2a, SPPL2b, SPP, and chimeric substrate FBA were generated as previously described (Ran et al, 2015). A20 cells (TIB‐208; ATCC, Manassas, VA, USA) were cultured in RPMI‐1640 medium (ATCC) supplied with 10% fetal bovine serum, 1% penicillin/streptomycin, and 0.05 mM 2‐mercaptoethanol (Life Technologies). Various concentrations of GSIs and (ZLL)2‐ketone as indicated in figures were applied to transfected HEK 293t cells at 70–90% confluence or A20 cells at a density of 5 × 10^5 cells/ml with fresh media in 48‐well format for 16 h. Cells and conditioned media were used for WB, IP, and ELISA.
as §4

[3] = tested on: NOTCH; set-up: method as in ref Appendix Table S1 (Gavai et al, 2015; Cook et al, 2010; Krop et al, 2012; Wei et al, 2010; Luistro et al, 2009; Mitani et al, 2012); conditions: ref Appendix Table S1 (Gavai et al, 2015; Cook et al, 2010; Krop et al, 2012; Wei et al, 2010; Luistro et al, 2009; Mitani et al, 2012); read-out: Reported IC50s NOTCH; cited from earlier work
[4] = tested on: full‐length APP; test: Cell-based γ-secretase cleavage assay, full-length APP stably overexpressing cells (Aβ ELISA); conditions: for IC50: full-length APP stably overexpressing cells, Aβ ELISA
Procedure: We next tested all GSIs on cAPPC100sub and full‐length APP stably overexpressing cells. […] The low‐dose potentiation of γ‐secretase cleavage was further mechanistically probed using in vitro assays with recombinant substrates and IP‐MS.
as §3, §4

[5] = target: cNOTCH2sub (Homo sapiens, UniProt P49768); test: Cell-based γ-secretase cleavage assay, cNOTCH2sub in H4 cells (Aβ-like peptide ELISA); conditions: rank among the six GSIs, number in brackets
Procedure: as §1, §2, §3, §4

[6] = tested on: cNOTCH1‐4sub; test: Average of cell-based IC50s on cNOTCH1-4sub in H4 cells; set-up: species or system human; conditions: read-out: Average IC50s of each GSI on cNOTCH1‐4sub
Procedure: as §1, §2, §3, §4

Compound | IC50 [1] [nM] | SPPLs‐catalyzed cleavage of FBA substrate [2] | IC50 [3] [nM] | IC50 [4] [nM] | rank order of inhibition of cNOTCH2sub [5] | IC50 [6] [nM] | low-dose potentiation of cleavage, APP ([4]; full-length APP overexpressing cells)
CN1C(=O)[C@@H](NC(=O)[C@H](CCC(F)(F)F)[C@H](CCC(F)(F)F)C(N)=O)N=C(c2ccccc2)c2ccccc21 [BMS‐906024] | 0.71 | efficiently inhibited | 0.7 to 3.4 | 0.05 | [2] | 0.57 | 
O=C(O)CC[C@H]1CC[C@@](c2cc(F)ccc2F)(S(=O)(=O)c2ccc(Cl)cc2)CC1 [MK‐0752] | 191 | did not show significant inhibition | 55 | 9.03 | [5] |  | 
CCC[C@H](N[C@H]1CCc2cc(F)cc(F)c2C1)C(=O)Nc1cn(C(C)(C)CNCC(C)(C)C)cn1 [PF‐3084014] | 0.81 | mild inhibition | 13.3 | 0.07 | [1] | 0.66 | 
CC(C)(C(=O)NCC(F)(F)C(F)(F)F)C(=O)N[C@@H]1C(=O)Nc2ccccc2-c2ccccc21 [RO4929097] | 3.4 | efficiently inhibited | 5 | 1.41 | [3] | 6.48 | low‐dose potentiation of cleavage was observed
CC(C)[C@H](O)C(=O)N[C@@H](C)C(=O)N[C@@H]1C(=O)N(C)CCc2ccccc21 [Semagacestat] | 46 | did not show significant inhibition | 14.1 | 24.5 | [4] | 121 | 
